Results published in patent US20260234107A1, “TRYPTAMINES AND METHODS OF TREATING MOOD DISORDERS” (priority 2022, published 2026).
Where two headings read alike, the source gives them in different places.

What was measured:
[1] = test system: monoamine oxidase A and B (MAO-A and MAO-B); assay: Stability in the presence of monoamine oxidases (human liver mitochondria preparation); set-up: half-life / microsomal CLint: dose or concentration left out as unconfirmed; settings: for stability in the presence of MAO (in words): human liver mitochondria preparation; for Remaining (t = 60 min) / half-life / microsomal CLint: human liver mitochondria; for half-life / microsomal CLint: human, pH 7.4
Protocol: Liver Mitochondria Incubations. Human liver mitochondria (Xenotech H0610.M) were used.

5-HT2A [2] = biological target: T1, 5-HT2A (Homo sapiens, UniProt P28223); assay: 5-HT2A receptor radioligand binding ([3H]ketanserin)
Protocol: The binding affinities of disclosed compounds at the ketanserin binding site of the 5-HT2A receptor were determined in radioligand binding experiments.
Method. Affinity of the test compounds for the 5-HT2A receptor was determined in radioligand binding experiments with [^3H]ketanserin by WuXi AppTec (Hong Kong) Limited, using methods adapted from the literature and under conditions described in Table 4.

[3] = Metabolic stability in human liver microsomes (HLM); set-up: microsomal CLint / half-life: dose or concentration left out as unconfirmed; settings: both, human, pooled human liver microsomes, pH 7.4
[4] = Plasma pharmacokinetics in mice after subcutaneous administration; assay type: in vivo, male C57BL/6 mice; settings: SC 10 mg/kg
Text: Animals. […] Four mice were housed in each cage. […] All animals were provided laboratory rodent diet. […] Animals were randomly assigned to treatment groups.

rat synaptosomes = assay: Serotonin (5-HT) release from rat synaptosomes; assay type: biochemical, Male Sprague-Dawley rats
Protocol: Disclosed compounds were assessed for their ability to release serotonin (5-HT) from […] (Table 9). Potency and efficacy for 5-HT release varied substantially depending on the specific compound. […] However, there was also substantial variability among 4-hydroxy compounds.
Synaptosome 5-HT Release Assay. Synaptosome release assays were conducted according to modifications of previously described procedures (Partilla et al. (2016). Interrogating the Activity of Ligands at Monoamine Transporters in Rat Brain Synaptosomes. In Neurotransmitter Transporters (pp. 41-52). Springer.). Briefly, synaptosomes were prepared from rat brains. Male Sprague-Dawley rats were rendered unconscious with CO2 and their brains were immediately removed. The cerebella were discarded and the whole brains (minus striatum) were placed in ice-cold 0.32 M sucrose (10 mL per brain) and gently homogenized by hand. The homogenate of each brain was centrifuged at 1,000×g at 4° C. for 10 mins and the resulting supernatant was diluted with ice-cold 0.32 M sucrose to a total volume of 10 mL to provide the synaptosome solution. Synaptosomes were then preloaded with 5 nM [^3H]5-HT in the presence of selective uptake inhibitors of DAT (50 nM GBR12935), NET (100 nM nomifensine), and VMAT2 (1 μM reserpine) in Krebs phosphate buffer (KPB). The incubations were allowed to reach equilibrium for 2 h at 25° C. For the release reactions, 425 μL of preloaded synaptosomes were added to test tubes containing 75 μL of test drugs diluted in KPB containing 1 mg/mL BSA. After 10 mins, the release reaction was stopped using a cell harvester by rapid vacuum filtration over GF/B filter paper presoaked in wash buffer (10 mM Tris-HCl, pH 7.4, 150 mM NaCl) and the filters were washed with additional wash buffer. Filters were dried for 1 h at 60° C. and retained radioactivity was quantified using a MicroBeta 2 liquid scintillation counter. The amount of retained radioactivity was inversely proportional to the extent of release.

[5] = Stability in rat brain homogenate; assay type: in vitro ADME, male Sprague Dawley rats; settings: for half-life at 1 µM: male, Sprague Dawley; for half-life at 1 µM / % Compound Remaining (after 120 min): rat brain homogenate, 37° C., 1 μM
5-HT2A [6] = biological target: T1, 5-HT2A; assay: FLIPR Ca2+ flux agonist assay at 5-HT2A; assay type: cell-based; set-up: host or cells: HEK293; settings: for 5-HT2A % Act @ Max Dose: HEK293, max dose
5-HT1A = biological target: T2, 5-HT1A (Homo sapiens, UniProt P08908); assay: FLIPR Ca2+ flux agonist assay at 5-HT1A; assay type: cell-based; settings: for 5-HT1A % Act @ Max Dose: Ca2+ flux, CHO cells
T2 construct: host or cells: CHO cells
T2 sequence (P08908 1-422): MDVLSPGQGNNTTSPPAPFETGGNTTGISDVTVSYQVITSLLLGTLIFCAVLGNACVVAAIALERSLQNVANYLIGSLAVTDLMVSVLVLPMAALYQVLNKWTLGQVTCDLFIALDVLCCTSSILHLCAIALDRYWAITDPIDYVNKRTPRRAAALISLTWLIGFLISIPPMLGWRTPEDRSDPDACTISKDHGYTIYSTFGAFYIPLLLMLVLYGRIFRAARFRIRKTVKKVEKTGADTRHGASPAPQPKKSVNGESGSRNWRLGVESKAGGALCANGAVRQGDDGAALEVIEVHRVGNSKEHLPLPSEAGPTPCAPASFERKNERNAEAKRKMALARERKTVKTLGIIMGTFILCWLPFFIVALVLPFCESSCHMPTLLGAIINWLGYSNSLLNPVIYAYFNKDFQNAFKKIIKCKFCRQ

[7] = Stability in mouse brain homogenate; assay type: in vitro ADME, male CD-1 mice; settings: for half-life at 1 µM: male, CD-1; for half-life at 1 µM / % Compound Remaining (after 120 min): mouse brain homogenate, 37° C., 1 μM
5-HT2B = biological target: T3, 5-HT2B (Homo sapiens, UniProt P41595); assay: FLIPR Ca2+ flux agonist assay at 5-HT2B; assay type: cell-based; settings: for 5-HT2B % Act @ Max Dose: HEK293, max dose
T3 construct: host or cells: HEK293

5-HT2C receptor [8] = biological target: T4, 5-HT2C receptor (Homo sapiens, UniProt P28335); assay: cell-based; assay type: cell-based; settings: Ca2+ flux
T4 sequence (P28335 33-458): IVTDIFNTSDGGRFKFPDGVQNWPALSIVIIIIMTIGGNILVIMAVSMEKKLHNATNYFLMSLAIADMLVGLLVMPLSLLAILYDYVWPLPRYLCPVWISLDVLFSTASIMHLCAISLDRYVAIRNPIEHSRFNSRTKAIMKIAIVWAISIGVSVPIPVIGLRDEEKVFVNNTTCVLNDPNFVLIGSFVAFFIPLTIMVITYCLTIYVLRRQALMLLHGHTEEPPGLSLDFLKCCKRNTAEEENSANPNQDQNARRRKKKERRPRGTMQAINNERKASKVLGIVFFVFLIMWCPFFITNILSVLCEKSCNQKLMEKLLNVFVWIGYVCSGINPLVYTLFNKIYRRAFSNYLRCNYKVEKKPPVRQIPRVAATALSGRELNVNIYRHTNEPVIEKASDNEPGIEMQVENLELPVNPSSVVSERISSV

5-HT2C receptor [9] = biological target: T4, 5-HT2C receptor; assay: 5-HT2C receptor radioligand binding ([3H]mesulergine); settings: for Ki: HEK293 stable cell line, 2 nM [3H]mesulergine; for binding to the 5-HT2C receptor (in words): compared with 5-HT2A receptor binding
Protocol: The binding affinities of disclosed compounds at the mesulergine binding site of the 5-HT2C receptor were determined in radioligand binding experiments.
Method. Affinity of the test compounds for the 5-HT2C receptor was determined in radioligand binding experiments with [^3H]mesulergine by WuXi AppTec (Hong Kong) Limited, using methods adapted from the literature and under conditions described in Table 11.

[10] = mouse, plasma, male C57BL/6 mice
[11] = HEK293 stable cell line, 1 nM [3H]ketanserin, read-out: 5-HT2A Ki (nM) ([3H]Ketanserin)

T1 sequence (P28223 whole entry): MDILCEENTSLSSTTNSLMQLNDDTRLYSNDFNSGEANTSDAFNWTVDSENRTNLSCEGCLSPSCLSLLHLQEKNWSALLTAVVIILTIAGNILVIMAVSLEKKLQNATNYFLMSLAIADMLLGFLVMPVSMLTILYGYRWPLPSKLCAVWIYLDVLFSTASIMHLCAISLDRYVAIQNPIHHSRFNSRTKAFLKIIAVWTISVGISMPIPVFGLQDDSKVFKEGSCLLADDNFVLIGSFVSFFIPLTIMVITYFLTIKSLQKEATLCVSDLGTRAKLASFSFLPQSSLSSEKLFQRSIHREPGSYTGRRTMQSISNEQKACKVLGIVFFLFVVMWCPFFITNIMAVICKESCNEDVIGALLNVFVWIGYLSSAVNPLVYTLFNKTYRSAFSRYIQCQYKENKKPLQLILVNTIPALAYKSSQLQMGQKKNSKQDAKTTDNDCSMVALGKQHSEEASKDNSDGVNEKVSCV
T3 sequence (P41595 whole entry, species assumed): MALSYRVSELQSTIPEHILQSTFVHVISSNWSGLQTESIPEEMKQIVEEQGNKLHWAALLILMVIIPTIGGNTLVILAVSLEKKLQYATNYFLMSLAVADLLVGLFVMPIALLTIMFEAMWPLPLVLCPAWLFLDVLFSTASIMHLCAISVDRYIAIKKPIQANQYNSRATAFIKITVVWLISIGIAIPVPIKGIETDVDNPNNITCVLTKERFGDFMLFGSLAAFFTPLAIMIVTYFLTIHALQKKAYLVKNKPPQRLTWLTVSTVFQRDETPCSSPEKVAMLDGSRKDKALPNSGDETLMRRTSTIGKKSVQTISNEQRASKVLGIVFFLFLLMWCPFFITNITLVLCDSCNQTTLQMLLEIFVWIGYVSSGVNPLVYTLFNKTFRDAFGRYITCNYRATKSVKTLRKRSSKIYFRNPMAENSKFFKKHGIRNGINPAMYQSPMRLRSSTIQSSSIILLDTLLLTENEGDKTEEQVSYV

| Structure (SMILES) | stability in the presence of MAO (in words) [1] | Remaining (t = 60 min) [1] [%] | half-life [1] [h] | microsomal CLint [1] [µL/min/mg] | half-life [3] [h] | microsomal CLint [3] [µL/min/mg] | half-life at 1 µM [5] [h] | % Compound Remaining (after 120 min) [5] [%] | EC50 (5-HT1A) [µM] | 5-HT1A % Act @ Max Dose (5-HT1A) [%] | half-life at 1 µM [7] [h] | % Compound Remaining (after 120 min) [7] [%] | 5-HT2B % Act @ Max Dose (5-HT2B; Ca2+ flux) [%] | Ki (5-HT2A [2]; [11]) [nM] | EC50 (5-HT2A [6]) [µM] | 5-HT2A % Act @ Max Dose (5-HT2A [6]; Ca2+ flux) [%] | EC50 (5-HT2C receptor [8]) [µM] | agonism at 5-HT2C (in words) (5-HT2C receptor [8]) | 5-HT2C % Act @ Max Dose (5-HT2C receptor [8]) [%] | Ki (5-HT2C receptor [9]) [nM] | also measured |
| --- | --- | --- | --- | --- | --- | --- | --- | --- | --- | --- | --- | --- | --- | --- | --- | --- | --- | --- | --- | --- | --- |
| Oc1cccc2[nH]cc(CCNC3CC3)c12 [Compound 4, 3-(2-(cyclopropylamino)ethyl)-1H-indol-4-ol] | intermediate stability | 72.7 | 1.91 | 20.2 | 1.36 | 17 | 1.05 | 25.2 | 6.56 | 58.72 | 0.883 | 19.4 | 4.08 |  |  |  |  |  |  |  | Ki (5-HT2A [2]): 339 nM; peak plasma concentration compared with 5-F-DMT (in words) ([4]; mice): much higher peak concentrations than 5-F-DMT; AUC(0-t) [4, 10]: 665 ng·h/mL; Cmax [4, 10]: 1220 ng/mL; half-life [4, 10]: 0.62 h; Tmax ([4]; mouse, plasma, male C57BL/6 mice, read-out: Tmax): 0.25 h; EC50 (rat synaptosomes; rat synaptosomes preloaded with [3H]5-HT): 1.25 µM; % Release @ Max Dose (10 μM) (rat synaptosomes; rat synaptosomes, 10 μM): 38.87%; stability in rat brain homogenate (in words) [5]: intermediate stability; EC50 (5-HT2A [6]; Ca2+ flux, HEK293, read-out: 5-HT2A EC50): 0.0087 µM; stability in mouse brain homogenate (in words) [7]: intermediate stability; agonism at 5-HT2B (in words) (5-HT2B; Ca2+ flux): did not |
| CC(C)n1cc(CCN(C)C)c2c(O)cc(F)cc21 [Compound 10, 3-(2-(dimethylamino)ethyl)-6-fluoro-1-isopropyl-1H-indol-4-ol] | intermediate stability | 55.7 | 1.31 | 29.4 | 1.78 | 12.9 | 4.49 | 71.4 | > 100 | 1.85 | > 4.82 | 80.9 | 1.99 | 1190 | > 1 | 1.28 | 0.0301 | potent partial agonism | 43.06 | 10.5 | binding to the 5-HT2C receptor (in words) (5-HT2C receptor [9]): potent binding to the 5-HT2C receptor; EC50 (5-HT2B): > 10 µM |
| CNCCc1cn(C(C)C)c2cc(F)cc(O)c12 [Compound 12, 6-fluoro-1-isopropyl-3-(2-(methylamino)ethyl)-1H-indol-4-ol] |  | 104.0 | > 2.42 | < 15.9 | > 2.42 | < 9.6 | 4.14 | 70.4 | > 100 | 3.96 | 4.39 | 72.3 | 1.74 | > 1230 | > 1 | 10.55 | 0.0253 | potent partial agonism | 57.17 | 30.8 | binding to the 5-HT2C receptor (in words) (5-HT2C receptor [9]): potent binding to the 5-HT2C receptor; EC50 (5-HT2B): > 10 µM |
